Tests used:
GALAP (Galium) = test: Postemergence herbicidal evaluation; format: in vivo, Galium aparine; conditions: for GALAP herbicidal rating: postemergence
How it was run: (§1)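 ~2-wk seedlings; postemergence spray, 40 psi; vehicle 1:1 acetone:water + 0.5% Tween 20; rate ≈0.0156–0.500 kg/ha; greenhouse hold; scored 4–5 wk after treatment, 0–9 scale vs control; repeat tests averaged.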

[1] = test system: TRZAWR (Wheat, Winter, cv Riband); test: Postemergence herbicidal evaluation; format: in vivo, Triticum aestivum; conditions: for TRZAWR herbicidal rating: postemergence
How it was run: as §1

[2] = test system: SAGPY (Arrowhead (Pygmaea)); test: Postemergence weed control under flooded paddy conditions; format: in vivo, Sagittaria pygmaea; conditions: postemergence weeds
How it was run: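 Containers holding 3–5 cm weeds and rice at 1.5–2.5 leaves are flooded to 1.5–3 cm above soil. Compound in 50/50 v/v aqueous/acetone is then added directly to the water, about 0.0313–0.500 kg/ha. Plants are kept in the greenhouse and rated 0–9 visually at 3–4 weeks.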

AMBEL (Ragweed, Common) = test: Postemergence herbicidal evaluation; format: in vivo, Ambrosia artemisifolia; conditions: for AMBEL herbicidal rating: postemergence
How it was run: as §1

[3] = test system: CHEAL (Lambsquarters, Common); test: Preemergence herbicidal evaluation; format: in vivo, Chenopodium album; conditions: rated 4-5 weeks after treatment
How it was run: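 Rating at 4–5 wk post-spray on a 0–9 visual scale vs control. Application: aqueous acetone, ~0.0156–0.500 kg/ha, to soil surface after seeding, preemergence.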

[4] = Rate 0.1250 kg/ha, rated 3 to 4 weeks after treatment
[5] = Rate 0.2500 kg/ha, rated 3 to 4 weeks after treatment
[6] = Rate 0.0313 kg/ha, rated 3 to 4 weeks after treatment
[7] = Rate 0.0625 kg/ha, rated 3 to 4 weeks after treatment

Compound	GALAP herbicidal rating (GALAP (Galium); rate 0.0158 kg/ha)	GALAP herbicidal rating (GALAP (Galium); rate 0.0315 kg/ha)	GALAP herbicidal rating (GALAP (Galium); rate 0.0630 kg/ha)	TRZAWR herbicidal rating ([1]; rate 0.0158 kg/ha)	TRZAWR herbicidal rating ([1]; rate 0.0315 kg/ha)	TRZAWR herbicidal rating ([1]; rate 0.0630 kg/ha)	Herbicidal rating SAGPY [2, 4]	Herbicidal rating SAGPY [2, 5]	AMBEL herbicidal rating (AMBEL (Ragweed, Common); rate 0.0158 kg/ha)	AMBEL herbicidal rating (AMBEL (Ragweed, Common); rate 0.0315 kg/ha)	AMBEL herbicidal rating (AMBEL (Ragweed, Common); rate 0.0630 kg/ha)	Preemergence herbicidal rating CHEAL ([3]; rate 0.0156 kg/ha)	Preemergence herbicidal rating CHEAL ([3]; rate 0.0313 kg/ha)	Preemergence herbicidal rating CHEAL ([3]; rate 0.0625 kg/ha)	Preemergence herbicidal rating CHEAL ([3]; rate 0.1250 kg/ha)	Preemergence herbicidal rating CHEAL ([3]; rate 0.2500 kg/ha)	Herbicidal rating SAGPY [2, 6]	Herbicidal rating SAGPY [2, 7]	further results
Cn1c(C(F)(F)F)cc(=O)n(-c2cc(N=C3SCC(=O)N3C3CCOC3=O)c(Cl)cc2F)c1=O (stereo not shown) [Compound 73]	3.0	7.0	6.0	3.5	4.0	5.0	3.0	4.0	9.0	9.0	9.0	9.0	9.0	9.0	9.0	9.0	–	–	–
CCOC(=O)CN1CCSC1=Nc1cc(-n2nc(C)n(C(F)F)c2=O)c(F)cc1Cl [Compound 36]	–	–	–	–	–	–	–	–	–	–	–	–	–	0.0	9.0	9.0	–	–	Postemergence herbicidal rating GALAP (GALAP (Galium); Rate 0.0158 kg/ha): 0.0; Postemergence herbicidal rating GALAP (GALAP (Galium); Rate 0.0315 kg/ha): 1.0; Postemergence herbicidal rating GALAP (GALAP (Galium); Rate 0.0630 kg/ha): 4.0; Postemergence herbicidal rating TRZAWR ([1]; Rate 0.0158 kg/ha): 1.5; Postemergence herbicidal rating TRZAWR ([1]; Rate 0.0315 kg/ha): 2.5; Postemergence herbicidal rating TRZAWR ([1]; Rate 0.0630 kg/ha): 3.5; Herbicidal rating SAGPY ([2]; rate 0.0313 kg/ha, 3-4 weeks after treatment): 0.0; Herbicidal rating SAGPY ([2]; rate 0.0625 kg/ha, 3-4 weeks after treatment): 0.0; Herbicidal rating SAGPY ([2]; rate 0.1250 kg/ha, 3-4 weeks after treatment): 3.0; Herbicidal rating SAGPY ([2]; rate 0.2500 kg/ha, 3-4 weeks after treatment): 9.0; Postemergence herbicidal rating AMBEL (AMBEL (Ragweed, Common); Rate 0.0158 kg/ha): 2.0; Postemergence herbicidal rating AMBEL (AMBEL (Ragweed, Common); Rate 0.0315 kg/ha): 3.0; Postemergence herbicidal rating AMBEL (AMBEL (Ragweed, Common); Rate 0.0630 kg/ha): 9.0
CCOC(=O)C(c1ccc(Cl)cc1)N1C(=O)CSC1=Nc1cc(-n2c(=O)cc(C(F)(F)F)n(C)c2=O)c(F)cc1Cl (racemic) [Compound 79, Ethyl α-(p-chlorophenyl)-2-{{2-chloro-5-[3,6-dihydro-3-methyl-2,6-dioxo-4-(trifluoromethyl)-1(2H)-pyrimidinyl]-4-fluorophenyl}imino}-4-oxo-3-thiazolidineacetate, DL-]	1.0	2.0	1.0	3.0	2.5	5.0	4.0	4.0	6.0	7.0	9.0	–	9.0	9.0	9.0	9.0	0.0	0.0	–
COC(=O)[C@H](Cc1ccc([N+](=O)[O-])cc1)N1C(=O)CSC1=Nc1cc(-n2c(=O)cc(C(F)(F)F)n(C)c2=O)c(F)cc1Cl [Compound 78, Methyl 2-{{2-chloro-5-[3,6-dihydro-3-methyl-2,6-dioxo-4-(trifluoromethyl)-1(2H)-pyrimidinyl]-4-fluorophenyl}imino}-4-oxo-α-(p-nitrobenzyl)-3-thiazolidineacetate, L-]	1.0	1.0	2.0	3.0	3.5	3.5	2.0	4.0	7.0	7.0	9.0	9.0	9.0	9.0	9.0	9.0	0.0	0.0	–

Source: patent US20020137929A1, “1 - (3-heterocyclylphenyl) isothiourea, -isourea, -guanidine and -amidine herbicidal agents” (Intellectual Property Department, BASF Aktiengesellschaft, priority 1998, published 2002)
